# Reference: patent US20200332222A1, “MUSK COMPOSITIONS AND METHODS OF USE THEREOF” (TAKASAGO INTERNATIONAL CORPORATION (USA), priority 2015, published 2020)
# How the values were obtained:
# [1] = Chassis-air partition coefficient of accord components; assay type: physicochemical; settings: BC-162 shampoo chassis
# Description: The chassis-air partition coefficient can be measured for materials in various chassis.
# Ki,chassis-air is the chassis-air partition coefficient for component i in the fragrance formula
# Ci, chassis is the concentration of component i in the product formula chassis in molarity, M
# Ci, air is the concentration of component i in the headspace air in equilibrium with the formula chassis in molarity, M
# For the “Example Accord” in the BC-162 shampoo chassis components, the log chassis-air partition coefficients are as listed in Table 11.
# [2] = as above; assay type: physicochemical
# salivary alpha-amylase = assay: Salivary alpha-amylase before vs after timed ten minute mathematical/word stress test, fragrance inhaled; assay type: in vivo, human; settings: for Percent change in salivary alpha-amylase: solvent only control 66.8%; for Salivary Amylase Data (change before vs after stress test): Table 6, about 10-15 panelists, DPG control +60.7%
# Experimental: Fourteen female panelists age 30-45 participated in this study. Stress was induced using a timed ten minute mathematical/word test in a small group competition setting. Fragrance was introduced at intervals during the stress test. Saliva was collected before (Pre) and immediately after (Post) the stress test. Saliva samples were assayed for salivary alpha-amylase using a commercially available kinetic reaction assay kit and for salivary cortisol using a highly sensitive enzyme immunoassay kit (Salimetrics®, State College, Pa.). […]
# (§1) Saliva was collected before (Pre) and immediately after (Post) the stress test. Saliva samples were assayed for salivary alpha-amylase using a commercially available kinetic reaction assay kit and for salivary cortisol using a highly sensitive enzyme immunoassay kit (Salimetrics®, State College, Pa.).
# salivary cortisol = assay: Salivary cortisol before vs after timed ten minute mathematical/word stress test, fragrance inhaled; assay type: in vivo, human; settings: for Cortisol Data (change before vs after stress test): Table 6, about 10-15 panelists, DPG control −10.9%
# Description: Salivary cortisol is widely used as a biomarker for stress. The purpose of this study was to investigate the influence of individual fragrance compounds, particularly musk compounds, on a subject's cortisol levels before and after exposure to a stressor. The subject sniffed each musk compound, then was exposed to a stressor. The goal was to identify one or more specific musk compounds which caused the least amount of change in cortisol levels or decreased a subject's cortisol levels compared to before administration, thereby reducing or inhibiting a response to stress stimuli. […]
# Stress was induced in a number of panelists (about 10-15) for each tested compound using a timed ten minute mathematical/word test in a small group competition setting. The test compound was introduced at intervals during the stress test.
# Saliva was collected before and immediately after the stress test. Saliva samples were assayed for salivary cortisol levels and salivary alpha-amylase activity using a commercially available kinetic reaction assay kit (Salimetrics®, State College, Pa.). […]
# as §1
# brain waves = assay: Contingent Negative Variant (CNV) analysis of brain waves recorded by EEG; assay type: in vivo, human; settings: Example 9; Musk T 10% by weight in DPG
# Experimental: Contingent Negative Variant (CNV) analysis was conducted on brain waves recorded from subjects using EEG (electroencephalography) in the presence of the musk fragrance compound. CNV analysis is summarized in Okazaki et al., Proceedings of the 13th International Congress of Flavours, Fragrances and Essential Oils, 15-19 Oct. 1995.
# [3] = Table 4, macrocyclic musks, 12-14 female panelists age 30-45, before vs immediately after stress test
# [4] = Table 5, non-macrocyclic musks, methods as Example 6
compound,measurement,setting,value
"O=C1CCCCCCCCCOCCCCCO1 [MUSK RI, 11-Oxahexadecan-16-olide]","logK, BC162 (log chassis-air partition coefficient)",[1],5.780
same,"logK, APDO Soft Solid (log chassis-air partition coefficient)",[2],6.970
"O=C1CCCC=CCCCCCCCCCC1 [Ambretone ®, 5-Cyclohexadecen-1-one]",Percent change in salivary alpha-amylase,salivary alpha-amylase; [3],36.9%
CC1CCCCCCCCCCCCC(=O)C1 [L-Muscone],Salivary Amylase Data (change before vs after stress test),salivary alpha-amylase,+14.5%
same,Cortisol Data (change before vs after stress test),salivary cortisol,+25.6%
CC(=O)CCc1ccc(O)cc1 [PARA HYDROXY PHENYL BUTANONE],"logK, BC162 (log chassis-air partition coefficient)",[1],7.809
same,"logK, APDO Soft Solid (log chassis-air partition coefficient)",[2],6.135
"CC(=O)C(C)CC[C@H]1CCC(C)C1(C)C (stereo partly drawn) [3-methyl-5-((1R)-2,2,3-trimethylcyclopentyl)pentan-2-one]",Salivary Amylase Data (change before vs after stress test),salivary alpha-amylase,−6.1%
same,Cortisol Data (change before vs after stress test),salivary cortisol,−16.5%
"O=C1CCCCCCCCCCCCCCO1 [EXALTOLIDE, 16-oxacyclohexadecan-1-one]","logK, BC162 (log chassis-air partition coefficient)",[1],5.356
same,"logK, APDO Soft Solid (log chassis-air partition coefficient)",[2],6.729
"CC(=O)OC(C)C1CCCC(C)(C)C1 (stereo not shown) [Rosamusk, 1-(3,3-dimethylcyclohexyl)ethyl acetate]","Pre vs. Post salivary alpha-amylase level, decrease in response to stress test","salivary alpha-amylase; Example 10, FIG. 7, Rosamusk 10% by weight in DPG, DPG alone increased 33%",15%
same,Salivary Amylase Data (change before vs after stress test),salivary alpha-amylase,−15.2%
same,"Pre vs. Post salivary cortisol level, increase in response to stress test","salivary cortisol; Example 10, FIG. 8, Rosamusk 10% by weight in DPG, DPG alone 25%",7%
same,Cortisol Data (change before vs after stress test),salivary cortisol,+6.68%
"CCOC(=O)[C@@H]1[C@@H](C)CCCC1(C)C [ethyl (1R,6S)-2,2,6-trimethylcyclohexane-1-carboxylate]",Percent change in salivary alpha-amylase,salivary alpha-amylase; [4],70.7%
"O=C1CCCCC=CCCCCCCCCCO1 [Ambrettolide, 17-oxacycloheptadec-6-en-1-one]",Percent change in salivary alpha-amylase,salivary alpha-amylase; [3],13.1%
same,Salivary Amylase Data (change before vs after stress test),salivary alpha-amylase,+13.16%
same,Cortisol Data (change before vs after stress test),salivary cortisol,−11.25%
"CC(=O)c1cc2c(cc1C)C(C)(C)C(C)C2(C)C (stereo not shown) [Phantolide, 1-(1,1,2,3,3,6-hexamethyl-2H-inden-5-yl)ethanone]",Salivary Amylase Data (change before vs after stress test),salivary alpha-amylase,−19.2%
same,Cortisol Data (change before vs after stress test),salivary cortisol,−12.3%
"CC1=CCC(C/C=C(\C)CO)C1(C)C (stereo not shown) [Hindinol, (E)-2-methyl-4-(2,2,3-trimethyl-1-cyclopent-3-enyl)but-2-en-1-ol]",Percent change in salivary alpha-amylase,salivary alpha-amylase; [4],82.3%
same,Salivary Amylase Data (change before vs after stress test),salivary alpha-amylase,+82.3%
same,Cortisol Data (change before vs after stress test),salivary cortisol,−25.0%
"O=C1CCCCCCCCCCCC(=O)OCCO1 [Musk T ®, ethylene brassylate]","Pre vs. Post salivary alpha-amylase level, increase in response to stress test","salivary alpha-amylase; Example 8, FIG. 3, Musk T 2.5% by weight in fragrance (floral fragrance/Musk T 75/25 admixture, 10% in DPG), DPG alone 120%",38%
same,"Pre vs. Post salivary alpha-amylase level, increase in response to stress test","salivary alpha-amylase; Example 9, FIG. 5, Musk T 10% by weight in DPG, DPG alone 161%",47%
same,Percent change in salivary alpha-amylase,salivary alpha-amylase; [3],47.1%
same,"Pre vs. Post salivary cortisol level, decrease in response to stress test","salivary cortisol; Example 8, FIG. 4, Musk T 2.5% by weight in fragrance (floral fragrance/Musk T 75/25 admixture, 10% in DPG), DPG alone increased 24%",8%
same,"Pre vs. Post salivary cortisol level, increase in response to stress test","salivary cortisol; Example 9, FIG. 6, Musk T 10% by weight in DPG, DPG alone 41%",10%
same,"increase in the level of relaxation, CNV analysis of brain waves",brain waves,32.5%
same,"logK, BC162 (log chassis-air partition coefficient)",[1],6.345
same,"logK, APDO Soft Solid (log chassis-air partition coefficient)",[2],7.306
"O=C1CCCCCCCCC/C=C/CCCO1 [Habanolide, (12E)-1-oxacyclohexadec-12-en-2-one]",Percent change in salivary alpha-amylase,salivary alpha-amylase; [3],4.7%
same,Salivary Amylase Data (change before vs after stress test),salivary alpha-amylase,+4.67%
same,Cortisol Data (change before vs after stress test),salivary cortisol,−20.6%
same,"logK, BC162 (log chassis-air partition coefficient)",[1],5.505
same,"logK, APDO Soft Solid (log chassis-air partition coefficient)",[2],6.693
